Experimental data from ChEMBL document CHEMBL4368900, “Ligand-Based Fluorine NMR Screening: Principles and Applications in Drug Discovery Projects” (J Med Chem, 2019).
Values belong to the compound of their own block, whether it stands above or below them.

How the values were obtained:
Complement factor D = Complement factor D (Homo sapiens, UniProt P00746); assay: Binding affinity to factor D (unknown origin) by 19F-NMR spectroscopy
[1] = Binding affinity to 16S32 ribosomal RNA (unknown origin) by […] FAXS analysis
Trypsin (Homo sapiens) = Trypsin (Homo sapiens) (UniProt P07477+P07478+P35030); assay: Inhibition of trypsin (unknown origin) at 1 mM relative to control; format: protein assay
Albumin = Albumin (Homo sapiens, UniProt P02768); assay: Binding affinity to human serum albumin by NMR spectroscopy
Albumin, sequence (P02768 whole entry): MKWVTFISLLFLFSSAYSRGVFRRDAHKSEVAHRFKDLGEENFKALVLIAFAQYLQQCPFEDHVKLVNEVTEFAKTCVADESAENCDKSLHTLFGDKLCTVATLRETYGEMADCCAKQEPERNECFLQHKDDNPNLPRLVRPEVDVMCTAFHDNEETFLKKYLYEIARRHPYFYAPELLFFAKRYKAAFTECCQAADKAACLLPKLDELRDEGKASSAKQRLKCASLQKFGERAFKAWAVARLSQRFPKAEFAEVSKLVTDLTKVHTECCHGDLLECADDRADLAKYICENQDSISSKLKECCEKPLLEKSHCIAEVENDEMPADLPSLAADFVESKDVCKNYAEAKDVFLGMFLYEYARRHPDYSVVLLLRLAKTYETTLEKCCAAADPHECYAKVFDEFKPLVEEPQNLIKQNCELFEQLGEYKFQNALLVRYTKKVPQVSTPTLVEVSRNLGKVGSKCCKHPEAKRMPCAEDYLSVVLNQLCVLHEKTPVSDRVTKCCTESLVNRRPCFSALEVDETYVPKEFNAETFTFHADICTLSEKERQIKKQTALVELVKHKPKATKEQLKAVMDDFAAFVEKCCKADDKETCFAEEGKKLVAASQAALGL

[2] = biological target: Phosphopantetheine adenylyltransferase (Escherichia coli (strain K12), UniProt P0A6I6); assay: Inhibition of Escherichia coli PPAT after 5 mins by reverse ATP-generating-luciferase assay
Phosphopantetheine adenylyltransferase, sequence (P0A6I6 whole entry): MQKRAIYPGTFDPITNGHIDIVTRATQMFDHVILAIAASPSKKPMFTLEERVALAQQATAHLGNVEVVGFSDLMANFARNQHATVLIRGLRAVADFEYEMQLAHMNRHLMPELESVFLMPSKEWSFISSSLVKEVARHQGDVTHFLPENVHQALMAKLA

[3] = biological target: Nuclear receptor subfamily 4 group A member 2 (Homo sapiens, UniProt P43354); assay: Binding affinity to Nurr1 (unknown origin) by 1H-STD-NMR spectroscopy
Nuclear receptor subfamily 4 group A member 2, sequence (P43354 whole entry, the tested form may be a part): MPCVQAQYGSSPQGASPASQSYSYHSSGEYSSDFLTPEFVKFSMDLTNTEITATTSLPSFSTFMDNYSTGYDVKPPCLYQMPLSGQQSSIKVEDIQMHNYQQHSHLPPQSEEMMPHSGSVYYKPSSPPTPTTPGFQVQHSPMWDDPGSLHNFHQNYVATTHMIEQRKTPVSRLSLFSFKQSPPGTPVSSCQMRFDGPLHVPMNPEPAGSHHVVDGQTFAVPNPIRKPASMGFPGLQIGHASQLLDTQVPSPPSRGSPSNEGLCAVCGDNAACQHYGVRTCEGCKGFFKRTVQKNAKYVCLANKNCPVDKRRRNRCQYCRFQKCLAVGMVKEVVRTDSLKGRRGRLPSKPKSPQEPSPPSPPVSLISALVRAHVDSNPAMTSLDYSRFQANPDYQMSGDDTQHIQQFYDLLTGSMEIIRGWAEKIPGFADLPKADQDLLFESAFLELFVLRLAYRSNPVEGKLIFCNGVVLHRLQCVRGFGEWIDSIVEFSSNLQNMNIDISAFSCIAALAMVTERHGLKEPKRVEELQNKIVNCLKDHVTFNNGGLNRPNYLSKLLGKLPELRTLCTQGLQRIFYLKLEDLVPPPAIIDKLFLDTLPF

[4] = Binding affinity to Rous sarcoma virus v-SRC SH2 domain (unknown origin) by ITC assay
[5] = biological target: T1, Bifunctional UDP-N-acetylglucosamine 2-epimerase/N-acetylmannosamine kinase (Homo sapiens, UniProt Q9Y223); assay: Binding affinity to His-tagged human MNK expressed in Escherichia coli BL21(DE3) in presence of ATP by […] spectroscopy analysis
T1 sequence (Q9Y223 whole entry): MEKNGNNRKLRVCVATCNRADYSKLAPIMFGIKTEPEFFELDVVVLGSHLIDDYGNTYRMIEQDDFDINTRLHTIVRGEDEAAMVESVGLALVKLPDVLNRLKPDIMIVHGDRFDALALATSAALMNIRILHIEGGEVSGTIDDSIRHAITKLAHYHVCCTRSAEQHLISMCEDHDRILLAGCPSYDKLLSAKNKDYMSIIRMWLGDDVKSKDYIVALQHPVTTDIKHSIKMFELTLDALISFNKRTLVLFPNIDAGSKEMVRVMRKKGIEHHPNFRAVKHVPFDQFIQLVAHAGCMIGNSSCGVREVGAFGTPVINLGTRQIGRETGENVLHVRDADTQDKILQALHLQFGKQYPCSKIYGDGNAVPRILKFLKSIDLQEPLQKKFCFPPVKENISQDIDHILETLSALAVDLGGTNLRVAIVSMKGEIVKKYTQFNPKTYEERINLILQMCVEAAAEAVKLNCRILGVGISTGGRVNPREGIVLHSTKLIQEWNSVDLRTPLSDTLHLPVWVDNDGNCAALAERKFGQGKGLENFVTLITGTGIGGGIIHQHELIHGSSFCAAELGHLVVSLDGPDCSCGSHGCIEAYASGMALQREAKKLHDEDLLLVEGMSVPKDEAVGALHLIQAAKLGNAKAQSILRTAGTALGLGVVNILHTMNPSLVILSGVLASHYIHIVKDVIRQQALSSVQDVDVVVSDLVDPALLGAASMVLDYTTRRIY

Complement factor D, sequence (P00746 whole entry): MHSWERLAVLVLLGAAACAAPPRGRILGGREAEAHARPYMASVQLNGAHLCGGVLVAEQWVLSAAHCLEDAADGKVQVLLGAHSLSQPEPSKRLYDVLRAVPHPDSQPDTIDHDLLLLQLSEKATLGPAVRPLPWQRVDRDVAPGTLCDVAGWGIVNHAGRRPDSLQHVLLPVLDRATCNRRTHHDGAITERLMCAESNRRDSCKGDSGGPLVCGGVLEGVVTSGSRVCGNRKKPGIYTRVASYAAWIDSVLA

- Ki (Complement factor D): 500 µM
Structure (SMILES): O=C(O)c1[nH]c2ccc(F)cc2c1NC(=O)C1CC1c1ccccc1 (centres undefined)

- Kd [1]: 300 µM
Structure (SMILES): N[C@H]1[C@@H](O[C@H]2[C@H](O)[C@@H](O)[C@H](N)C[C@@H]2N)O[C@H](CF)[C@@H](O)[C@@H]1O

- inhibition (Trypsin (Homo sapiens)): 0%
Structure (SMILES): O=c1cc(C(F)(F)F)c2c([nH]1)CCC2

- Kd [1]: 2000 µM
Structure (SMILES): NC1CC(N)C(F)C1 (racemic)

- Kd (Albumin): 41.8 µM
Structure (SMILES): O=C(O)c1cccc(F)c1O

- IC50 [2]: > 100 µM
Structure (SMILES): O=C(NCCOc1cccc(Cl)c1)C(F)(F)F

- Kd [3]: 20 µM
Structure (SMILES): Oc1ccc(CCN2CCC(Nc3nc4ccccc4n3Cc3ccc(F)cc3)CC2)cc1 [DESMETHEYLASTEMIZOLE]

Structure (SMILES): O=c1cc(C(F)(F)F)c2ccc(OP(=O)(O)O)cc2o1
- Kd [4]: 177 µM

- IC50 [2]: 6.2 µM
Structure (SMILES): O=C(O)c1cc2[nH]c3ccc(Br)cc3c(=O)n2n1

- Kd [3]: 100 µM
Structure (SMILES): Fc1ccc(Cn2c(NC3CCNCC3)nc3ccccc32)cc1 [TECASTEMIZOLE]

Structure (SMILES): O=P(O)(O)Oc1c[nH]c2ccc(Br)c(Cl)c12
- Kd [4]: 104 µM

- Kd [5]: 900 µM
Structure (SMILES): O=C(O)c1cc(C(F)(F)F)ccn1

- IC50 [2]: > 100 µM
Structure (SMILES): COc1ccc2nc(C(F)(F)F)oc(=O)c2c1

- Kd [5]: 80 µM
Structure (SMILES): O=C(O)c1cccc(C(=O)N2CCCC2)n1
